Results from patent US6730666B1, “Pharmaceutical compositions comprising porphyrins and some novel porphyrin derivatives” (Yeda Research and Development Co. Ltd., priority 1998, dated 2004).
“Also recorded” adds a separate entry of the source. Like-named read-outs stand apart in the source and are kept apart here.

How the values were obtained:
[1] = test system: Lewis lung carcinoma (LLC) lung metastasis; test: Lewis lung carcinoma lung metastasis model; type: in vivo, C57 black mice; parameters: Inhibitory activity in vivo, LLC tumor model (as % of total inhibition): reference not given here; conditions: for Inhibitory activity in vivo, LLC tumor model (as % of total inhibition): 25 μg/gram, LLC murine tumor model, lung metastasis
Procedure: (vii) Lewis lung carcinoma tumor assay. Murine Lewis lung carcinoma (LLC) D122 cells (1×10^6 cells/[…] PBS) were injected into the foot pads of 10-week old C57 black mice (O'Reilly et al, 1994). Twenty five μg/g of body mass of porphyrin or corrole compound dissolved in PBS were injected IP twice a week to the treated group, and tumor size was measured periodically in order to follow primary tumor formation. In order to evaluate inhibition of lung metastasis by porphyrin or corrole compound, the primary tumors were allowed to develop over a period of six weeks to a volume of approximately 8 mm^3; after which the tumors were removed and metastases were allowed to develop for four weeks. During this time the treated group received 25 μg/g of body mass of porphyrin or corrole compound IP twice a week. Subsequently the mice were sacrificed, dissected and the lungs removed and photographed. The extent of lung metastasis was measured by weighing the lungs.
After establishing the capacity of P1 to inhibit primary tumor growth, the capacity of P1 to inhibit lung metastasis formation was measured as described in Methods, section (vi). Mice were injected with LLC cells (200,000 cells per mouse) into the foot pad and primary tumors were allowed to develop over a period of 3 to 4 weeks to a volume of approximately 8 mm^3. Subsequently, primary tumors were removed through amputation and lung metasases were allowed to develop for four weeks before the mice were sacrificed. The extent of lung metastasis at this point was examined by gross morphological examination and by determining the gain in lung weight. […] In order to quantitate the results from these experiments, the lungs from all mice were weighed and evaluated for the extent of metastatic growth.

soluble FGFR-1 (FRAP) = molecular target: T1, soluble FGFR-1 (FRAP) (Mus musculus, UniProt P16092); test: Binding of 125I-bFGF to immobilized soluble FGFR-1 (FRAP), cell-free
T1 sequence (P16092 22-376 limits assumed): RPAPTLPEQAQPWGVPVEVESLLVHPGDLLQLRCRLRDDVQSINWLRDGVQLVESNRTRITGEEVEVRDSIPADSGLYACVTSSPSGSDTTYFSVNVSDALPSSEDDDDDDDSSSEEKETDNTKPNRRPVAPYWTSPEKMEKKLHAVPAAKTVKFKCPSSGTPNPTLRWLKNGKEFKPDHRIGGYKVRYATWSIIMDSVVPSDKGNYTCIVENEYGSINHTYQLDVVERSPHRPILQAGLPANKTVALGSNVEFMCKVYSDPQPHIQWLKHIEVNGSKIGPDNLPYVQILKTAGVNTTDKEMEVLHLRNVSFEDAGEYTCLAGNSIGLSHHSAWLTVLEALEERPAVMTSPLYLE
Source text: First we utilized a cell-free system, measuring the binding of radiolabeled bFGF to a dimeric soluble FGFR-1 fused to alkaline phosphatase. […] As a: second experimental model, we used CHO cells deficient in heparan sulfate and genetically engineered to express FGFR-1 (Methods, section (iv)).

[2] = test system: FGFR-3 expressing CHO cells; test: FGF-9 induced mitogenic activity (DNA synthesis) of FGFR-3 expressing CHO cells; type: cell-based; conditions: FIG. 13
Procedure: CHO cells genetically engineered to express FGFR-3 were grown in the presence of increasing concentrations of porphyrins P1 and P16 in order to determine the ability of the porphyrins to inhibit FGF-9 induced DNA synthesis.
CHO cells genetically engineered to express FGFR-3 were used in order to determine the ability of the porphyrins P1 and P16 to inhibit biological activity of FGFR3 as measured by the level of DNA synthesis induced by FGF-9.

FGFR-1 = FGFR-1 (Mus musculus, UniProt P16092); test: Binding of 125I-bFGF to CHO cells expressing FGFR-1
Chain of FGFR-1 (P16092 22-822): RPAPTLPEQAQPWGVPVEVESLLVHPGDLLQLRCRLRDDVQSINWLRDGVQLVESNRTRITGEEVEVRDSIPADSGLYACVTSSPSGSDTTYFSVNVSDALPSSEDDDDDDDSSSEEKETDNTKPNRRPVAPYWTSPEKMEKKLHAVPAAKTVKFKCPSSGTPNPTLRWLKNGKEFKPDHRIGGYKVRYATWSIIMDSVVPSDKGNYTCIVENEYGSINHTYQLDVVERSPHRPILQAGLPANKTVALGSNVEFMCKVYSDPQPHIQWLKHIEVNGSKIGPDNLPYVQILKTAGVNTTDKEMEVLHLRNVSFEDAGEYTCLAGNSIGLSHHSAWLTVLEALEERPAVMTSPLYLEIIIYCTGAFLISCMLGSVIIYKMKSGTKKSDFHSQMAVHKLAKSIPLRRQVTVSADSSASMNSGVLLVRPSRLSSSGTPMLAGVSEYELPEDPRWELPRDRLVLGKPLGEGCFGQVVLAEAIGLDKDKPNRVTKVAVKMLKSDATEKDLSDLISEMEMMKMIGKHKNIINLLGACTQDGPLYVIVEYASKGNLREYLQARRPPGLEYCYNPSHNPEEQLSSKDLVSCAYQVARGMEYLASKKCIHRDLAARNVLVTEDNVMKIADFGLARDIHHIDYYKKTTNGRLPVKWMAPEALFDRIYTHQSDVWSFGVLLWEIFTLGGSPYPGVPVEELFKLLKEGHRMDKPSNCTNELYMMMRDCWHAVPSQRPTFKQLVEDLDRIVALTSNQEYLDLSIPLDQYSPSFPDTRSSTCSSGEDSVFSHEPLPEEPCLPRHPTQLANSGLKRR
Procedure: The binding medium was discarded and the cells were washed once with ice-cold DMEM/BSA and twice with cold PBS (pH 7.5) containing 1.6M NaCl. […] Non-specific binding was determined in the presence of a 100-fold excess of unlabeled bFGF.
First we utilized a cell-free system, measuring the binding of radiolabeled bFGF to a dimeric soluble FGFR-1 fused to alkaline phosphatase. The soluble FRAP was immobilized using an anti-alkaline phosphatase antibody prebound to agarose-protein A beads (see Methods, section (iii)). As a: second experimental model, we used CHO cells deficient in heparan sulfate and genetically engineered to express FGFR-1 (Methods, section (iv)).

[3] = molecular target: T2, FGFR-1 alkaline phosphatase fusion protein (FRAP) (Mus musculus, UniProt P16092); test: Binding of soluble FGFR-1 alkaline phosphatase fusion protein (FRAP) to bFGF immobilized on heparin (Screen AP assay)
T2 construct: soluble FGFR-1 ectodomain alkaline phosphatase fusion protein (FRAP); made in house; host or cells: NIH 3T3 cells (conditioned medium)
T2 sequence (P16092 22-376 limits assumed): T1 sequence (P16092 22-376 limits assumed)
Procedure: (ii) Binding of soluble FGFR-1 alkaline phosphatase fusion protein (FRAP) to immobilized bFGF. […] The end-point of the assay measured enzymatically the formation of FGF-receptor complexes quantitated by the specifically associated alkaline phosphatase (AP) catalyzed chromogenic product.
Subsequently, 200 μl of FRAP condition medium and porphyrin/corrole compound were added and incubated together for 2 h.
In order to identify inhibitors of FGF-FGFR interactions, an assay for testing FGFR-ligand binding was developed. The system is composed of bFGF bound to a heparin matrix to which soluble FGFR-1 ectodomain alkaline phosphatase fusion protein (FRAP) and the screened compounds are added (see Methods, section (ii)).

FGFR-3 = molecular target: T3, FGFR-3 (Homo sapiens, UniProt P22607); test: FGFR-3 tyrosine phosphorylation immunoblot (FGF-9 induced); type: cell-based; conditions: FIG. 14
T3 construct: expressed in transfected cells; host or cells: CHO cells (mutant 745)
T3 sequence (P22607 23-806, species assumed): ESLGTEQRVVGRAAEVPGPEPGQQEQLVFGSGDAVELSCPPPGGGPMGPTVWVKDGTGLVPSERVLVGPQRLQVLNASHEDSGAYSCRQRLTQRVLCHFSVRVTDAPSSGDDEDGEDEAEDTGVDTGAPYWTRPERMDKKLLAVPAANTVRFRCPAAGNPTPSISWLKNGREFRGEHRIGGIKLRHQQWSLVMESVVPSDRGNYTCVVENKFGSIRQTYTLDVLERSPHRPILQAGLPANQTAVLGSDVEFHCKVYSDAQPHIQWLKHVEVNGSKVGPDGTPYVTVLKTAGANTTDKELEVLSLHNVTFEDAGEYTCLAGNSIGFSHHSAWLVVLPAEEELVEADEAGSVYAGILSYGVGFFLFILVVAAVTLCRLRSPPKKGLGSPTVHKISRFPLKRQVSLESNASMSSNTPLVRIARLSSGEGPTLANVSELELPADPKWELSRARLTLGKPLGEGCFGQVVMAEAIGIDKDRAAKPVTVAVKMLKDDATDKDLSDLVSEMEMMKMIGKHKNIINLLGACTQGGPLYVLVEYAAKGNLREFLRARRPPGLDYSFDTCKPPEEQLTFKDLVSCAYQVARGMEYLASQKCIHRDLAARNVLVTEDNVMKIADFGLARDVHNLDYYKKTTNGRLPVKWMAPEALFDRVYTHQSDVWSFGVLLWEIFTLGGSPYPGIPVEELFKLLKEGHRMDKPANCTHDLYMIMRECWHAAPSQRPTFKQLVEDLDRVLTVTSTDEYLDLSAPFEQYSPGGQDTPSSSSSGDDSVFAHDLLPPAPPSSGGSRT
Procedure: (viii) Immunoblots. To the overnight serum-starved cells (2 plates for each treatment), 500 μl of F12^++ medium were added which either contained or not the respective porphyrin or corrole compound in a final concentration of […] for 40 min at 37° C. One of the two plates of each treatment was then stimulated with FGF9 (+) (75 ng/ml) and to the second plate only medium (−) was added for 10 min at 37° C. The cells were washed twice with PBS. 600 μl of SBN lysis buffer containing 1% NP-40 and 1 mM vanadate were added and left on ice for 10 min. The plates were then scraped and left on ice for additional 10 min. The lysate was span down in Eppendorf centrifuge for 15 min, 15000 rpm at 4° C. The supernatants were kept and Bradford protein determinant on assay was performed in the samples. 500 μg protein from each sample were taken for immunoprecipitation with 7.5 μl antibody against FGFR-3, 4 hr at 4° C.
In order to measure the ability of the porphyrins to inhibit the receptor activation on an enzymatic level as well, FGFR-3 tyrosine phosphorylation was measured in the presence of P16, as described in Methods, section (viii).

SMILES | Inhibition of lung metastasis in LLC model, in words ([1]; 25 μg/g of body mass IP) | Inhibitory activity in vivo, LLC tumor model (as % of total inhibition) [1] [%] | Lung weight ([1]; P1 25 μg/g of body mass, FIG. 7) | IC50 (soluble FGFR-1 (FRAP); IC50, bFGF-FGFR1 binding in the soluble receptor (FRAP) assay, FIG. 1B) [nM] | IC50 (soluble FGFR-1 (FRAP); Soluble receptor binding (IC50), binding of FGF to FGFR, Methods section (iii)) [nM] | Effect on cell proliferation induced by FGF-9 [2] | IC50 (FGFR-1; Cellular receptor binding (IC50), binding of FGF to FGFR, Methods section (iv)) [nM] | IC50 (FGFR-1; IC50, bFGF binding in the cellular receptor system, FIG. 1C) [nM] | IC50 ([3]; FIG. 1A, read-out: IC50, inhibition of FRAP binding to bFGF immobilized on heparin matrix (converted)) [nM] | IC50 ([3]; IC50, inhibition of binding of soluble FGFR-1 to bFGF immobilized on heparin, text of detailed description) [nM] | IC50 ([3]; binding of FGF to FGFR, Methods section (ii), read-out: Screen AP assay (IC50)) [nM] | IC50 (soluble FGFR-1 (FRAP); read-out: Soluble receptor binding (IC50), binding of FGF to FGFR, Methods section (iii)) [nM] | Effect on FGFR-3 tyrosine phosphorylation (FGFR-3) | IC50 (FGFR-1; read-out: Cellular receptor binding (IC50), binding of FGF to FGFR, Methods section (iv)) [nM]
C[n+]1ccc(-c2c3nc(c(-c4cc[n+](C)cc4)c4ccc([nH]4)c(-c4cc[n+](C)cc4)c4nc(c(-c5cc[n+](C)cc5)c5ccc2[nH]5)C=C4)C=C3)cc1 [Compound P1, 5,10,15,20-Tetrakis(N-methyl-4-pyridylium)-21H,23H-porphine tetra-p-tosylate] | no metastatic phenotype; also recorded: nearly total inhibition of the metastatic phenotype | 100 | around 200 mg | ~1000 | 750 | strong inhibitory effect | 1500 | ~2500 | 133 | 90000 | 75 |  |  | 
C[n+]1ccc(-c2c3nc(c(-c4cc[n+](C)cc4)c4ccc([nH]4)c(-c4c(F)c(F)c(F)c(F)c4F)c4nc(c(-c5cc[n+](C)cc5)c5ccc2[nH]5)C=C4)C=C3)cc1.[I-].[I-].[I-] [Compound P16, 5-Pentafluorophenyl-10,15,20-tris(N-methyl-4-pyridylium)-21H,23H-porphine triiodide] |  | 60 |  |  |  | strong inhibitory effect |  |  |  |  |  | 10 | reduced both the basal and, to a much greater extent, the FGF-9 induced phosphorylation of FGFR-3 | 20
